According to US4853412A, “N-[[6-methoxy-5-(trifluoromethyl)-1-naphthalenyl]-[substituted imino]methyl]-n-methylglycines” (American Home Products Corporation, priority 1987, dated 1989):
Values belong to the compound of their own block, whether it stands above or below them.

Tests used:
aldose reductase = target: T1, aldose reductase (Bos taurus, UniProt P16116); experiment: in vitro inhibition of aldose reductase from bovine lens (modified Hayman and Kinoshita procedure); format: biochemical; details: 10^-7 M
T1 construct: preparation of the enzyme from bovine lens; from tissue; host or cells: bovine lens
Method: Only two minor reagent changes were made: (a) The rinsing mixture was an aqueous 5% (w/v) trichloroacetic acid solution and (b) the stock solution was prepared by dissolving 25 mg of dulcitol in 100 mL of an aqueous trichloroacetic acid solution. [N.B.: For each experiment the average value found in the tissue from rats fed the glucose diet was subtracted from the individual values found in the corresponding tissue in galactose-fed rats to obtain the amount of polyol accumulated.] […] In the present case the procedure of Hayman and Kinoshita was modified in that the final chromatography step was omitted in the preparation of the enzyme from bovine lens.

[1] = test system: lenses of rats fed galactose; experiment: galactosemic rats: lowering of galactitol (dulcitol) accumulation in the lens; format: in vivo, rat (Sprague-Dawley); details: four days, vs untreated galactosemic rats
From the text: (§1) The aldose reductase inhibiting property of the compounds of this invention and the utilization of the compounds in preventing, diminishing and alleviating diabetic complications by lowering polyols accumulation are demonstrable in experiments using galactosemic rats, see Dvornik et al, Science, 182, 1146 (1973). Such experiments are exemplified hereinbelow after the listing of the following general comments pertaining to these experiments:
(§2) (a) Four or more groups of six male rats, 50-70 g, Sprague-Dawley strain, were used. The first group, the control group, was fed a mixture of laboratory chow (rodent Laboratory Chow, Purina) and glucose at 20% (w/w %) concentration. The untreated galactosemic group and the drug-treated groups were fed a similar diet in which galactose is substituted for glucose. The test compound was either admixed to the diet or administered by gavage. In experiments involving compound administration in the diet, the average dose administered was calculated from the actual food intake of the animals in each group. The concentration of galactose in the diet of the treated groups was the same as that for the untreated galactosemic group.
(§3) (b) After four days, the animals were killed by decapitation. The eyeballs were removed and punctured with a razor blade; the freed lenses were rolled gently on filter paper and weighed. The sciatic nerves were dissected as completely as possible and weighed. Both tissues when frozen can be kept up to two weeks before being analyzed for galactitol.
(§4) (c) The polyol determination was performed by a modification of the procedure of M. Kraml and L. Cosyns, Clin. Biochem., 2,373 (1969). Only two minor reagent changes were made: (a) The rinsing mixture was an aqueous 5% (w/v) trichloroacetic acid solution and (b) the stock solution was prepared by dissolving 25 mg of dulcitol in 100 mL of an aqueous trichloroacetic acid solution. [N.B.: For each experiment the average value found in the tissue from rats fed the glucose diet was subtracted from the individual values found in the corresponding tissue in galactose-fed rats to obtain the amount of polyol accumulated.] The aldose reductase inhibiting effects of the compounds of formula (I) were also tested by employing an in vitro testing procedure similar to that described by S. Hayman and J. H. Kinoshita, J. Biol. Chem., 240, 877 (1965). In the present case the procedure of Hayman and Kinoshita was modified in that the final chromatography step was omitted in the preparation of the enzyme from bovine lens.
(§5) The figures under L and N represent the percentage decrease of galactitol accumulation in the tissues of the lens and sciatic nerve, respectively, for treated rats as compared to untreated rats.

[2] = test system: sciatic nerves of rats fed galactose; experiment: galactosemic rats: lowering of galactitol (dulcitol) accumulation in the sciatic nerve; format: in vivo, rat (Sprague-Dawley); details: for % lowering dulcitol accumulation in vivo, N (sciatic nerve): four days, vs untreated galactosemic rats
From the text: as §1, §2, §3, §4, §5

inhibition at 0.1 µM (aldose reductase): 5%
SMILES: COc1ccc2c(C(=NS(=O)(=O)c3ccc(Br)cc3)N(C)CC(=O)O)cccc2c1C(F)(F)F [Example 6, N-[[[(4-Bromophenyl)sulfonyl]imino][6-methoxy-5-(trifluoromethyl)-1-naphthalenyl]methyl]-N-methylglycine]
% lowering dulcitol accumulation in vivo, L (lens) ([1]; 55 mg/kg/day p.o.): 0%
% lowering dulcitol accumulation in vivo, N (sciatic nerve) ([2]; 55 mg/kg/day p.o.): 0%

inhibition at 0.1 µM (aldose reductase): 69%
SMILES: COc1ccc2c(C(=NS(=O)(=O)C(F)(F)F)N(C)CC(=O)O)cccc2c1C(F)(F)F [Example 5, N-[[6-Methoxy-5-(trifluoromethyl)-1-naphthalenyl][[(trifluoromethyl)sulfonyl]imino]methyl]-N-methylglycine]
% lowering dulcitol accumulation in vivo, L (lens) ([1]; 56 mg/kg/day p.o.): 0%
% lowering dulcitol accumulation in vivo, N (sciatic nerve) ([2]; 56 mg/kg/day p.o.): 0%

inhibition at 0.1 µM (aldose reductase): 80%
SMILES: COc1ccc2c(C(=NC#N)N(C)CC(=O)O)cccc2c1C(F)(F)F [Example 4, N-[(Cyanoimino)[6-methoxy-5-(trifluoromethyl)-1-naphthalenyl]methyl]-N-methylglycine]
% lowering dulcitol accumulation in vivo, L (lens) ([1]; 26 mg/kg/day p.o.): 0%
% lowering dulcitol accumulation in vivo, L (lens) ([1]; 100 mg/kg/day p.o.): 0%
% lowering dulcitol accumulation in vivo, N (sciatic nerve) ([2]; 26 mg/kg/day p.o.): 30%
% lowering dulcitol accumulation in vivo, N (sciatic nerve) ([2]; 100 mg/kg/day p.o.): 61%
lowering of polyol accumulation compared with tolrestat (in words) ([2]; 100 mg/kg/day vs tolrestat at 6.4 mg/kg/day): comparable results

SMILES: COc1ccc2c(C(=S)N(C)CC(=O)O)cccc2c1C(F)(F)F [tolrestat, N-[[6-methoxy-5-(trifluoromethyl)-1-naphthalenyl]thioxomethyl]-N-methylglycine, reference compound]
% lowering dulcitol accumulation in vivo, L (lens) ([1]; 6.4 mg/kg/day p.o.): 0%
% lowering dulcitol accumulation in vivo, N (sciatic nerve) ([2]; 6.4 mg/kg/day p.o.): 50%
